Assay results taken from patent US9403894B2, “Glucagon analogues” (Zealand Pharma A/S, priority 2010, dated 2016).
Residues, ends and D or L forms follow the SMILES beside them.

What was measured:
db/db mice = assay: 6 weeks s.c. administration in db/db mice: HbA1c and body weight; assay type: in vivo; conditions: versus vehicle
Experimental: The HbA1c determination is based on Turbidimetric INhibition ImmunoAssay (TINIA) in which HbA1c in the sample reacts with anti-HbA1c to form soluble antigen-antibody complexes. Additions of polyhaptens react with excess anti-HbA1c antibodies to form an insoluble antibody-polyhapten complex, which can be measured turbidimetrically. Liberated hemoglobin in the hemolyzed sample is converted to a derivative having a characteristic absorption spectrum, which is measured bichromatically during the preincubation phases. The final result is expressed as percent HbA1c of total hemoglobin (Cobas®Application note A1C-2).
db/db (BKS.Cg-m+/+ Lepr^db/J) male mice, 5-6 weeks old, were obtained from Charles River Laboratories, Germany, and acclimatized in their new environment with free access to normal chow and water. […] Throughout the study, body weights were recorded daily and used to administer the body weight-corrected doses of peptide. HbA1c levels were measured on blood samples before treatment, and then once weekly during the study. […]
Blood samples were analyzed for HbA1c using the Cobas c111 analyzer (Roche Diagnostics, Mannheim, Germany). Samples for HbA1c analysis were analyzed within 24 hours of sampling.
Throughout the study, body weights were recorded daily and used to administer the body weight-corrected doses of peptide. […]

[1] = tested on: diet induced obese C57BL/6J mice; assay: 3 weeks s.c. treatment in diet induced obese C57BL/6J mice: body weight and OGTT; assay type: in vivo; conditions: s.c. twice daily
Experimental: C57Bl/6J male mice, 6 weeks old, were acclimatized in their new environment with free access to a high fat diet and water. 36 weeks old, the animals were randomized into groups with similar average fasting (6 hours) blood glucose (assessed from blood samples taken from the tip of the tail). The mice were treated twice daily s.c. for three weeks with compound 6 or vehicle. Body weight was recorded daily. After peptide treatment an oral glucose tolerance test (OGTT) were performed after subjecting the animals to a 6 hour fast. Animals were dosed with peptide or vehicle in the morning. Approximately four hours later an initial blood sample (fasting blood glucose level) was taken. Thereafter an oral dose of glucose was given and the animals were returned to their home cages (t=0). BG was measured at t=15 min, t=30 min, t=60 min, t=90 min and t=120 min. All animals were sacrificed immediately following blood sampling by CO2 anesthesia followed by cervical dislocation.

high fat diet fed mice = assay: 3 weeks s.c. treatment, lipids in 30 weeks high fat diet fed mice; assay type: in vivo; conditions: 30 weeks high fat diet mice, 10 nmol/kg s.c. twice daily
Experimental: The assay is an enzymatic colorimetric method. In the presence of magnesium ions, dextran sulfate selectively forms water-soluble complexes with LDL, VLDLA and chylomicrons, which are resistant to PEG-modified enzymes. The HDL cholesterol is determined enzymatically by cholesterol esterase and cholesterol oxidase coupled with PEG to the amino groups. Cholesterol esters are broken down quantitatively to free cholesterol and fatty acids. HDL cholesterol is enzymatically oxidized to choles-4-en-3-one and H2O2, and the formed H2O2 is measured colorimetrically (Cobas®; Application note HDLC3).
The direct determination of LDL takes advantage of the selective micellary solubilization of LDL by a nonionic detergent and the interaction of a sugar compound and lipoproteins (VLDL and chylomicrons). The combination of a sugar compound with detergent enables the selective determination of LDL in plasma. The test principle is the same as that of cholesterol and HDL, but due to the sugar and detergent only LDL-cholesterol esters are broken down to free cholesterol and fatty acids. Free cholesterol is then oxidized and the formed H2O2 is measured colorimetrically (Application note LDL_C, Cobas®).
The effect was measured on LDL, HDL and triglycerides (CHO: Total Cholesterol; HDL: High Density Cholesterol; LDL: Low Density Cholesterol; TRIG: Triglycerides; HDULDL: Ratio between HDL and LDL).

GLP-1 receptor = GLP-1 receptor (Homo sapiens, UniProt P43220); assay: Class B GPCR counterscreen, calcium flux agonist format; assay type: cell-based; conditions: at 12.5 μM and 125 nM
Chain of GLP-1 receptor (P43220 24-463): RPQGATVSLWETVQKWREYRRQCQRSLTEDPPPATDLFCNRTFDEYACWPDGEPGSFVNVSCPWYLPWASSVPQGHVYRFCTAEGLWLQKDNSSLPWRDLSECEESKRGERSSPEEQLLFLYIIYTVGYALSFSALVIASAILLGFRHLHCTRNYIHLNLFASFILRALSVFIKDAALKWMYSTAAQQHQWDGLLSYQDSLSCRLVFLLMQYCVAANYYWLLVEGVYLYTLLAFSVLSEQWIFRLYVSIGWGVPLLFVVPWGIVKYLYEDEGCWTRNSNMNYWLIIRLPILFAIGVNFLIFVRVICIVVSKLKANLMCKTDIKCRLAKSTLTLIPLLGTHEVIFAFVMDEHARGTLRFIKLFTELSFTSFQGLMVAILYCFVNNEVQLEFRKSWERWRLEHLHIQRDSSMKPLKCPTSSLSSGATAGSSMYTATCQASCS
Source text: (§1) The protocol design is as follows:

Glucagon receptor = Glucagon receptor (Homo sapiens, UniProt P47871); conditions: at 12.5 μM and 125 nM
Chain of Glucagon receptor (P47871 26-477): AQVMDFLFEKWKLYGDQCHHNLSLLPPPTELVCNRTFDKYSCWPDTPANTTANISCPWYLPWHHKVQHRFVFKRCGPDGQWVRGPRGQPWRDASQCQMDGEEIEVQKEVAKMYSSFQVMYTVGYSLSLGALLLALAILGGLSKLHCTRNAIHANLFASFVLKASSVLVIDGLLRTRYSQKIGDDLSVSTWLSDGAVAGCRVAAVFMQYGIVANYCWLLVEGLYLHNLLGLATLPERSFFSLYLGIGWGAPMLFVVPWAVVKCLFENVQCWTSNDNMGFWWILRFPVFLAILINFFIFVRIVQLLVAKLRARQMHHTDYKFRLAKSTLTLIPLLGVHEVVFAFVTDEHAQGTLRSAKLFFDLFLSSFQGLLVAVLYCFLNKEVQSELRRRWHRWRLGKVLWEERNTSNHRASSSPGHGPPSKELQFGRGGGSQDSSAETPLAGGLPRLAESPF
Experimental: Unless specified otherwise, the sample compounds were diluted in 100% anhydrous DMSO including all dilutions. If the sample compound is provided in a different solvent all master stock dilutions are performed in the specified solvent. All control wells contained identical solvent final concentrations as the sample compound wells.
Reference agonists were handled as mentioned above serving as assay control. The reference agonists were handled as described above for Emax.

CRF2 receptor = biological target: T1, CRF2 receptor (Homo sapiens, UniProt Q13324); assay: Class B GPCR counterscreen, calcium flux antagonist format; assay type: cell-based; conditions: at 10 μM
T1 sequence (Q13324 1-411): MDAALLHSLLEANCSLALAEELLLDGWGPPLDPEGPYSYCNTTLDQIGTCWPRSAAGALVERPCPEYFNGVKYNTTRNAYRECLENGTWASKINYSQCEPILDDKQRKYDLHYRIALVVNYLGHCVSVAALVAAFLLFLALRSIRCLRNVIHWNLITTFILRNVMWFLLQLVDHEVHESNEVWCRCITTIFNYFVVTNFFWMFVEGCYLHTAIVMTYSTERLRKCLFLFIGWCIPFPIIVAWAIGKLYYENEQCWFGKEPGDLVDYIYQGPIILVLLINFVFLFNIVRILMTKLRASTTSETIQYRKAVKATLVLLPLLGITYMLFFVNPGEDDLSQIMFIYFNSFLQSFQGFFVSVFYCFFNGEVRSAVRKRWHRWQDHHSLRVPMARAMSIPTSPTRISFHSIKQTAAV
Experimental: as §1
(§2) Using the EC80 values determined previously, stimulated all pre-incubated sample compound and reference antagonist (if applicable) wells with EC80 of reference agonist.
(§3) Read for 180 seconds using the FLIPR^TETRA (this addition added reference agonist to respective wells)—then fluorescence measurements were collected to calculate IC50-values.

GIP receptor = biological target: T2, GIP receptor (Homo sapiens, UniProt P48546); assay: as above; assay type: cell-based; conditions: at 10 μM and 100 nM
T2 sequence (P48546 22-466): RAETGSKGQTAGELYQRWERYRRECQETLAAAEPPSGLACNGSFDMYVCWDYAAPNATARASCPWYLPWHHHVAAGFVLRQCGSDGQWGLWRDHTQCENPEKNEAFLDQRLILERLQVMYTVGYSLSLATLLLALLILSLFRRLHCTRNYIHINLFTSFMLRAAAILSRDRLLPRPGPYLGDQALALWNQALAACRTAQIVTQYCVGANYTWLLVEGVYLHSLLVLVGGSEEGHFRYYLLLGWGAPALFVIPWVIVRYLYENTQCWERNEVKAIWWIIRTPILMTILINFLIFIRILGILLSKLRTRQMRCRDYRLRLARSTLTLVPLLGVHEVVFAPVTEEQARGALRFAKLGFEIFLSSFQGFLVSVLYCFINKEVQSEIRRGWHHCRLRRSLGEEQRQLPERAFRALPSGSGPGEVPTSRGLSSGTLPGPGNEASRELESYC
Experimental: as §1, §2, §3

Secretin receptor = Secretin receptor (Homo sapiens, UniProt P47872); assay: as above; assay type: cell-based; conditions: at 10 μM
Chain of Secretin receptor (P47872 23-440, species assumed): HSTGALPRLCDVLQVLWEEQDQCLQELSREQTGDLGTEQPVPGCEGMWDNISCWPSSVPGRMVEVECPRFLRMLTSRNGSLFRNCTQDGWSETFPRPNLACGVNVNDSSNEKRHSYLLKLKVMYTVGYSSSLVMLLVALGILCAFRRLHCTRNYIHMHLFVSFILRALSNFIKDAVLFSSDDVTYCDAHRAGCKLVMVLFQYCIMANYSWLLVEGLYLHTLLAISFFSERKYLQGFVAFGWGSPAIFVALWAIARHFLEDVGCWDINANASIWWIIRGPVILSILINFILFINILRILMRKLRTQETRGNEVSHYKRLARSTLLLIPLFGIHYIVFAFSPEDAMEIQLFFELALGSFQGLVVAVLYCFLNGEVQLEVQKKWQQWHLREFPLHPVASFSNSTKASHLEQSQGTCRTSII
Experimental: as §1, §2, §3

[2] = tested on: high fat fed C57BL/6J mice; assay: Body weight gain in high fat fed C57BL/6J mice, 10 days s.c. treatment; assay type: in vivo; conditions: both doses 0.5 and 5 nmol/kg s.c. twice daily
Experimental: C57BL/6J mice were acclimatized in their new environment for 4 weeks with free access to a high fat diet and water. […] Throughout the study, body weights were recorded daily and used to administer the body weight-corrected doses of peptide (FIG. 6). Mice were sacrificed by cervical dislocation.

in vivo = conditions: male, cynomolgus monkey
Experimental: Plasma samples were withdrawn at the following time points; predose, 5, 10, 30 min, 1, 2, 4, 8, 12, 24 and 36 h post i.v. dosing and predose, 10, 30 min, 1, 2, 4, 8, 12, 24, 36 and 48 h post s.c. dosing. The vehicle consisted of 25 mM phosphate buffered saline at pH 7.4 (25 mM sodium phosphate, 25 mM NaCl). Plasma samples were analyzed using protein precipitation followed by solid phase extraction and LC-MS/MS analysis. Pharmacokinetic parameters were calculated using non-compartmental analysis in WinNonLin version 4.1.

[3] = diet induced obese C57BL/6J mice

CCCCCCCCCCCCCCCC(=O)N[C@@H](CCC(=O)NCCCC[C@H](NC(=O)[C@H](CCC(=O)O)NC(=O)[C@H](CC(=O)O)NC(=O)[C@H](CC(C)C)NC(=O)[C@H](Cc1ccc(O)cc1)NC(=O)[C@H](CCCCN)NC(=O)[C@H](CO)NC(=O)[C@H](Cc1ccc(O)cc1)NC(=O)[C@H](CC(=O)O)NC(=O)[C@H](CO)NC(=O)[C@@H](NC(=O)[C@H](Cc1ccccc1)NC(=O)[C@@H](NC(=O)CNC(=O)[C@H](CCC(N)=O)NC(=O)[C@H](CO)NC(=O)[C@@H](N)Cc1c[nH]cn1)[C@@H](C)O)[C@@H](C)O)C(=O)N[C@@H](CCCNC(=N)N)C(=O)N[C@@H](C)C(=O)N[C@@H](CCCCN)C(=O)N[C@@H](CC(=O)O)C(=O)N[C@@H](Cc1ccccc1)C(=O)N[C@H](C(=O)N[C@@H](CCC(=O)O)C(=O)N[C@@H](Cc1c[nH]c2ccccc12)C(=O)N[C@@H](CC(C)C)C(=O)N[C@@H](CC(C)C)C(=O)N[C@@H](CO)C(=O)N[C@@H](C)C(N)=O)[C@@H](C)CC)C(=O)O [Compound 6]
effect on body weight gain (db/db mice; db/db mice, 5 nmol/kg s.c. twice daily, p<0.0001): significantly decreased body weight gain compared to vehicle | effect on increase in HbA1c over time (db/db mice; db/db mice, 1, 2.5 and 5 nmol/kg s.c. twice daily): did not at any time-point reduce the increase in HbA1c | decrease of body weight ([1]; diet induced obese C57BL/6J mice (30 weeks high fat diet), p<0.05): 38.7% | body weight level reached compared with non-treated controls on regular chow diet [1, 3]: stabilized to the same body weight as obtained by non-treated control animals on a regular chow diet | effect on fasting blood glucose [1, 3]: significantly decreased fasting blood glucose | effect on glucose tolerance (decrease in AUC during OGTT) ([1]; diet induced obese C57BL/6J mice, 6 hour fast): no significant effect on glucose tolerance | effect on HDL (high fat diet fed mice; P<0.001): significantly decreased | effect on LDL (high fat diet fed mice; P<0.001): significantly decreased | effect on total cholesterol (high fat diet fed mice; P<0.001): significantly decreased | effect on triglycerides (high fat diet fed mice; P<0.05): significantly decreased | effect on ratio HDULDL (high fat diet fed mice; p<0.001): increased significantly | agonist activity, GLP-1 receptor (GLP-1 receptor): exhibited agonist activities | agonist activity, Glucagon receptor (Glucagon receptor): exhibited agonist activities | antagonist activity, CRF2 receptor (CRF2 receptor): exhibited antagonist activity | antagonist activity, GIP receptor (GIP receptor): exhibited antagonist activity | antagonist activity, Secretin receptor (Secretin receptor): exhibited antagonist activity | effect on body weight gain [2]: significantly decreased body weight gain | bioavailability (in vivo): 43% | Tmax (in vivo; sc, 20 nmol/kg): 4 to 8 h

CCCCCCCCCCCCCCCC(=O)N[C@@H](CCC(=O)NCCCC[C@H](NC(=O)[C@H](CCC(=O)O)NC(=O)[C@H](CC(=O)O)NC(=O)[C@H](CC(C)C)NC(=O)[C@H](Cc1ccc(O)cc1)NC(=O)[C@H](CCCCN)NC(=O)[C@H](CO)NC(=O)[C@H](Cc1ccc(O)cc1)NC(=O)[C@H](CC(=O)O)NC(=O)[C@H](CO)NC(=O)[C@@H](NC(=O)[C@H](Cc1ccccc1)NC(=O)[C@@H](NC(=O)CNC(=O)[C@H](CCC(N)=O)NC(=O)C(C)(C)NC(=O)[C@@H](N)Cc1c[nH]cn1)[C@@H](C)O)[C@@H](C)O)C(=O)N[C@@H](CCCNC(=N)N)C(=O)N[C@@H](C)C(=O)N[C@@H](CCCCN)C(=O)N[C@@H](CC(=O)O)C(=O)N[C@@H](Cc1ccccc1)C(=O)N[C@H](C(=O)N[C@@H](CCC(=O)O)C(=O)N[C@@H](Cc1c[nH]c2ccccc12)C(=O)N[C@@H](CC(C)C)C(=O)N[C@@H](CC(C)C)C(=O)N[C@@H](CO)C(=O)N[C@@H](C)C(N)=O)[C@@H](C)CC)C(=O)O [Compound 7] (HELM PEPTIDE1{H.[Aib].Q.G.T.F.T.S.D.Y.S.K.Y.L.D.E.K.R.A.K.D.F.I.E.W.L.L.S.A.[am]}|PEPTIDE2{[CCCCCCCCCCCCCCCC(=O)[*:2]].[gGlu]}$PEPTIDE1,PEPTIDE2,17:R3-2:R2$$$V2.0)
effect on body weight gain [2]: significantly decreased body weight gain
